Assay results as given in patent US20140163023A1, “DIHYDROPYRROLO PYRIMIDINE DERIVATIVES AS MTOR INHIBITORS” (Cellzome Limited, priority 2011, published 2014).
Structures can show the parent of a compound that is named as a salt.

Key:
mTOR = biological target: T1, mTOR (Homo sapiens, UniProt P42345); assay: mTOR kinobeads assay (competition binding in cell lysate, dot blot detection); settings: 1:1 mix of Jurkat and Ramos cell lysates, read-out: Inhibition values (IC50 in μM) as determined in the kinobeads assay, mTor
T1 construct: endogenous in cells; host or cells: Jurkat (ATCC TIB-152, clone E6-1) and Ramos (ATCC CRL-1596), 1:1 lysate mix
Summary of the method: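 Competition binding in a 1:1 mix of Jurkat and Ramos cell lysates at 5 mg/ml total protein, with compounds in a 1:3 dilution series and an affinity matrix of two immobilized ligands, 2 h in the cold with shaking. mTOR captured on the beads was eluted and quantified by antibody dot blot with infrared detection. IC50 came from dose-response curves.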

PI3Kα = biological target: T2, PI3Kα (Homo sapiens, UniProt P42336); assay: kinobeads assay, PI3Kα; assay type: binding; settings: 1:1 mix of Jurkat and Ramos cell lysates, read-out: Inhibition values (IC50 in μM) as determined in the kinobeads assay, PI3Kα
T2 construct: endogenous in cells; host or cells: Jurkat (ATCC TIB-152, clone E6-1) and Ramos (ATCC CRL-1596), 1:1 lysate mix
T2 sequence (P42336 whole entry): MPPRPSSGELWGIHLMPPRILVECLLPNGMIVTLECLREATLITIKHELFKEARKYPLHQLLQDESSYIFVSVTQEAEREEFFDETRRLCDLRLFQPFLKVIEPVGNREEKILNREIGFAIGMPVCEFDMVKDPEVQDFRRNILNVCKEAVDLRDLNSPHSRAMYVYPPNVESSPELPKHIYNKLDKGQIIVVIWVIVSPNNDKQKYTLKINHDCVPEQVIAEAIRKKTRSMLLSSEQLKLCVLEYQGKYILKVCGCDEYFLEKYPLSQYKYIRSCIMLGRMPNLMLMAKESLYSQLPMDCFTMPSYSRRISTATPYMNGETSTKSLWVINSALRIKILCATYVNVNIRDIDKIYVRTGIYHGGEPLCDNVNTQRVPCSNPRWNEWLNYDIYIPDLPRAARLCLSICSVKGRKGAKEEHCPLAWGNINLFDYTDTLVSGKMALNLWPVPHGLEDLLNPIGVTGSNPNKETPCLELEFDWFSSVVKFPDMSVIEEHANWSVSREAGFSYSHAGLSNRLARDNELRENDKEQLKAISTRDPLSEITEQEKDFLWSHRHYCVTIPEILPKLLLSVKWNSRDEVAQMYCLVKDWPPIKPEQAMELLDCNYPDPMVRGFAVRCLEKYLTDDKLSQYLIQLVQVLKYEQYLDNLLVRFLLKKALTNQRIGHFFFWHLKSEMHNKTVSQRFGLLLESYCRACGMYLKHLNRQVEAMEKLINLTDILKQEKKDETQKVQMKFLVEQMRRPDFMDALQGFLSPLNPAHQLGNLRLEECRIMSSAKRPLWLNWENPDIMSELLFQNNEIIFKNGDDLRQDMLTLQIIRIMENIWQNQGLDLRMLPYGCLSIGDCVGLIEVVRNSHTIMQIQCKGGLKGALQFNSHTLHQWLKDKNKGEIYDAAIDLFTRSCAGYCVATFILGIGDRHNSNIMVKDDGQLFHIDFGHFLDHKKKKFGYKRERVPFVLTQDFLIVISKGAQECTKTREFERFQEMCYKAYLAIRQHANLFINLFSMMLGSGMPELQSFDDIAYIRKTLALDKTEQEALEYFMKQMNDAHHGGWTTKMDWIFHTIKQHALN
T2 sequence (P27986 whole entry partner): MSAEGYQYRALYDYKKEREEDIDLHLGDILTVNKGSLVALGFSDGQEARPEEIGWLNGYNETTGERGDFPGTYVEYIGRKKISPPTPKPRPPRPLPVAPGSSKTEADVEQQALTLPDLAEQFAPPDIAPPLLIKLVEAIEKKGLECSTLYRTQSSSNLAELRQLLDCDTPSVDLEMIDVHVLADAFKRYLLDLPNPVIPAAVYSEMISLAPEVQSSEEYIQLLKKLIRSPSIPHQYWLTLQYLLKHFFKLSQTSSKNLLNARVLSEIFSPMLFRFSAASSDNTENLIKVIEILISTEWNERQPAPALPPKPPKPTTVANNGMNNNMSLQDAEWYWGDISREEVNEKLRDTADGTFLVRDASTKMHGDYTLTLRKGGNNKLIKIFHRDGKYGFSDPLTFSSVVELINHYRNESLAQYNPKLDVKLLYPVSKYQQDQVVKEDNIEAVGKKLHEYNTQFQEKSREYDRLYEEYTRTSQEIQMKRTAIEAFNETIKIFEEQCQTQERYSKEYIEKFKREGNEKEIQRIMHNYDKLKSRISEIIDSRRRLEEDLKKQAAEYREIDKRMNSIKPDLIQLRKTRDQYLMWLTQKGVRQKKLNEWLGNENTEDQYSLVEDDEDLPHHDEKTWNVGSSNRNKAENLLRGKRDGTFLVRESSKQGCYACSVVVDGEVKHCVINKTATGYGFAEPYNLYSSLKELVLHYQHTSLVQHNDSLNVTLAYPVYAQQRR
Summary of the method: (§1)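 Inhibitor at serial dilutions (1:3, 9 steps) competed for binding to an affinity matrix of two immobilized ligands in a 1:1 Jurkat/Ramos lysate at 5 mg/ml protein, 2 h in a cold room. Bound kinases were eluted, quantified by antibody dot blot with infrared detection, and IC50 was taken from dose-response curves.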

PI3Kβ = biological target: T3, PI3Kβ (Homo sapiens, UniProt P42338); assay: kinobeads assay, PI3Kβ; assay type: binding; settings: 1:1 mix of Jurkat and Ramos cell lysates, read-out: Inhibition values (IC50 in μM) as determined in the kinobeads assay, PI3Kβ
T3 construct: endogenous in cells; host or cells: Jurkat (ATCC TIB-152, clone E6-1) and Ramos (ATCC CRL-1596), 1:1 lysate mix
T3 sequence (P42338 whole entry): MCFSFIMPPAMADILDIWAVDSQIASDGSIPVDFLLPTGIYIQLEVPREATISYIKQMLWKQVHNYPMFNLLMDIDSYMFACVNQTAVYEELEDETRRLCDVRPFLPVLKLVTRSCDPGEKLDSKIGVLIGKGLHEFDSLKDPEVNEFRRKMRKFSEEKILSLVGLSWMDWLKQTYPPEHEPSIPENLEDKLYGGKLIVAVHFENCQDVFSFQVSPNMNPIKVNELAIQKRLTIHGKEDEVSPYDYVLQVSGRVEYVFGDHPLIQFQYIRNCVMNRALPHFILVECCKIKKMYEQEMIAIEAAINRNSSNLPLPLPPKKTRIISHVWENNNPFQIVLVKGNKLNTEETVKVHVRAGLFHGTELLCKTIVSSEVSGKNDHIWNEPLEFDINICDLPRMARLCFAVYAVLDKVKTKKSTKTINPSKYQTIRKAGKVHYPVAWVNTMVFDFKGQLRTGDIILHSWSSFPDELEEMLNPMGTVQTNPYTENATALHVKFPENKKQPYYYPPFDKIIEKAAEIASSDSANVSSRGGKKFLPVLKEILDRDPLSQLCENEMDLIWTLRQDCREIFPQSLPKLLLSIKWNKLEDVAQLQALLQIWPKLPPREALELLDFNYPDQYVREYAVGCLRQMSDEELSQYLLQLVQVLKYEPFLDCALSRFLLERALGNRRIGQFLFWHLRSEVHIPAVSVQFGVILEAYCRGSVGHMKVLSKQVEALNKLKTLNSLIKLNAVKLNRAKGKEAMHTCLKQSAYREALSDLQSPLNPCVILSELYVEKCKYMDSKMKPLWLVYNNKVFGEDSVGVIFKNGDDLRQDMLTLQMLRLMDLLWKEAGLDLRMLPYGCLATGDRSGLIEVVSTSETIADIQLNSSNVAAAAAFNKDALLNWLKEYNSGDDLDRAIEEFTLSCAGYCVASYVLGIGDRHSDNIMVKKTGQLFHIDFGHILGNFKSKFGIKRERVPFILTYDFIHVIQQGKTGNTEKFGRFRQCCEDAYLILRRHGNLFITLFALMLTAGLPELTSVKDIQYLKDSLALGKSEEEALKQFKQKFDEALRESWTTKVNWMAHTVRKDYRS
T3 sequence (P27986 whole entry partner): as the sequence (P27986 whole entry partner) above
Summary of the method: as §1

PI3Kδ = biological target: T4, PI3Kδ (Homo sapiens, UniProt O00329); assay: kinobeads assay, PI3Kδ; assay type: binding; settings: 1:1 mix of Jurkat and Ramos cell lysates, read-out: Inhibition values (IC50 in μM) as determined in the kinobeads assay, PI3Kδ
T4 construct: endogenous in cells; host or cells: Jurkat (ATCC TIB-152, clone E6-1) and Ramos (ATCC CRL-1596), 1:1 lysate mix
T4 sequence (O00329 whole entry): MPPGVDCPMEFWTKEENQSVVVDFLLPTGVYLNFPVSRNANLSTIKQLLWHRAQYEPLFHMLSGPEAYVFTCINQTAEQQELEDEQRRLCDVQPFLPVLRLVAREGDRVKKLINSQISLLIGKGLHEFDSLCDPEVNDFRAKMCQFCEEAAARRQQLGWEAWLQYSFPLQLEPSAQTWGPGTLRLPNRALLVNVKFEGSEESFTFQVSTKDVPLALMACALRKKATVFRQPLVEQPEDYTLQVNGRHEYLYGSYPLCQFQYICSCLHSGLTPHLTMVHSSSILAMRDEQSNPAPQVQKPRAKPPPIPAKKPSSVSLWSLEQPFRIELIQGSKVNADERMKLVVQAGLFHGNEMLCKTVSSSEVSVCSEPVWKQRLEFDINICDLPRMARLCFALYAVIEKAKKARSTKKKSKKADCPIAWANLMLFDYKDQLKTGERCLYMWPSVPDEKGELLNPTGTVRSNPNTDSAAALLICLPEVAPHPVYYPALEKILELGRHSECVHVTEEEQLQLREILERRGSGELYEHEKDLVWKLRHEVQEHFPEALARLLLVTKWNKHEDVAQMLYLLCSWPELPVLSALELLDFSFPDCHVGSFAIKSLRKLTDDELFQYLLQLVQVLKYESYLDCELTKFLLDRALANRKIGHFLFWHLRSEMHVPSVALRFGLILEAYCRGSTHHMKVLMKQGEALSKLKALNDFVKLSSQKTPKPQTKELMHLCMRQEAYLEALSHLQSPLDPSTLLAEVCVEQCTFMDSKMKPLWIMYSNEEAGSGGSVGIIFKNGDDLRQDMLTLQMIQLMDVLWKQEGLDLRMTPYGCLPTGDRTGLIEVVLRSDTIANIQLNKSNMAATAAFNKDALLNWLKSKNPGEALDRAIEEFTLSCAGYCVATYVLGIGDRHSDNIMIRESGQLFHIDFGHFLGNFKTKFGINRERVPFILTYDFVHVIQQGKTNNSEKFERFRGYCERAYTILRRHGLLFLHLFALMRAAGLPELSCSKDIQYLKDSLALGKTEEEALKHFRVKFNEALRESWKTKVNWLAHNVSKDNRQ
T4 sequence (P27986 whole entry partner): as the sequence (P27986 whole entry partner) above
Summary of the method: as §1

PI3Kγ = biological target: T5, PI3Kγ (Homo sapiens, UniProt P48736); assay: kinobeads assay, PI3Kγ; assay type: binding; settings: 1:1 mix of Jurkat and Ramos cell lysates, read-out: Inhibition values (IC50 in μM) as determined in the kinobeads assay, PI3Kγ
T5 construct: endogenous in cells; host or cells: Jurkat (ATCC TIB-152, clone E6-1) and Ramos (ATCC CRL-1596), 1:1 lysate mix
T5 sequence (P48736 whole entry): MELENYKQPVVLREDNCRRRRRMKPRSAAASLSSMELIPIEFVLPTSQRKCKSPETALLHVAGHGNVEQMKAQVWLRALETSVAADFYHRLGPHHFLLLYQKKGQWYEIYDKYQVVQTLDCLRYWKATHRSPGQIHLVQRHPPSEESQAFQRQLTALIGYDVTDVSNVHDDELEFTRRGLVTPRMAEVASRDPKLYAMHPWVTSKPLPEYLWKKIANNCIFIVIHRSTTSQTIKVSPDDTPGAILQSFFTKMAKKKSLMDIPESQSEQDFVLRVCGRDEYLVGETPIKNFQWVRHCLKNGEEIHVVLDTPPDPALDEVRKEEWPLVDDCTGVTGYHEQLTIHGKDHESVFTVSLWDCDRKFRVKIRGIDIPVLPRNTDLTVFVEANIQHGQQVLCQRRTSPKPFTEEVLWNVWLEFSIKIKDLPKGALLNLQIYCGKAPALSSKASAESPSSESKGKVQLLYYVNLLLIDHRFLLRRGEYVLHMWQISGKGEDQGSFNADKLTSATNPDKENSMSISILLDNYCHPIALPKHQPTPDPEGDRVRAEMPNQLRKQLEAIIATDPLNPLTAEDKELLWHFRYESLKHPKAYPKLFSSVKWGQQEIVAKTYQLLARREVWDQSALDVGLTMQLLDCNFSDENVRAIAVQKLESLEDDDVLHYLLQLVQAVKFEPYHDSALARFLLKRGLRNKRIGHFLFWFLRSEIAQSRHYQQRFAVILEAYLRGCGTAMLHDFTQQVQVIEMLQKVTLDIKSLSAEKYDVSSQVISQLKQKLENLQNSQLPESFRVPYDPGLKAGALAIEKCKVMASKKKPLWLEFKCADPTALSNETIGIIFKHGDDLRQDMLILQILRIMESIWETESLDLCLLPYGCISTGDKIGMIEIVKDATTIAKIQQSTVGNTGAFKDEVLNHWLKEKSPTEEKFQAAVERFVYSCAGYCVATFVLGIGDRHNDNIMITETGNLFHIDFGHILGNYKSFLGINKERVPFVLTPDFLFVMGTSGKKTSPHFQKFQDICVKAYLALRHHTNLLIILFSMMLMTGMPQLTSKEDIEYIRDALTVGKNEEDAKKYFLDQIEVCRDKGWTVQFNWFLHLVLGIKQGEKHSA
Summary of the method: as §1

[1] = biological target: T6, DNA-dependent protein kinase (DNA-PK) (Homo sapiens, UniProt P78527); assay: kinobeads assay, DNA-PK; assay type: binding; settings: 1:1 mix of Jurkat and Ramos cell lysates, read-out: Inhibition values (IC50 in μM) as determined in the kinobeads assay, DNA-PK
T6 construct: endogenous in cells; host or cells: Jurkat (ATCC TIB-152, clone E6-1) and Ramos (ATCC CRL-1596), 1:1 lysate mix
Summary of the method: as §1

| SMILES | IC50 (mTOR) [µM] | IC50 (PI3Kα) [µM] | IC50 (PI3Kβ) [µM] | IC50 (PI3Kδ) [µM] | IC50 (PI3Kγ) [µM] | IC50 [1] [µM] |
| --- | --- | --- | --- | --- | --- | --- |
| C[C@H]1COCCN1c1nc2c(c(-c3ccc(NC(=O)NC4CC4)cc3)n1)CN(C(=O)C1CCCN1)C2 (stereo partly drawn) [Example 41, 1-cyclopropyl-3-(4-(2-((S)-3-methylmorpholino)-6-(pyrrolidine-2-carbonyl)-6,7-dihydro-5H-pyrrolo[3,4-d]pyrimidin-4-yl)phenyl)urea hydrochloride] | 1 to 10 | 10 to 100 | 10 to 100 | 10 to 100 | 10 to 100 | > 100 |
| CC(O)CNC(=O)Nc1ccc(-c2nc(N3CCOC[C@@H]3C)nc3c2CN(C(C)C)C3)cc1 (stereo partly drawn) [Example 45, 1-(2-hydroxypropyl)-3-(4-(6-isopropyl-2-((S)-3-methylmorpholino)-6,7-dihydro-5H-pyrrolo[3,4-d]pyrimidin-4-yl)phenyl)urea] | 1 to 10 | 10 to 100 | > 100 | > 100 | > 100 | > 100 |
| CCNC(=O)Nc1ccc(-c2nc(N3CCOC[C@@H]3C)nc3c2CN(C(C)C)C3)cc1 [Example 46, (S)-1-ethyl-3-(4-(6-isopropyl-2-(3-methylmorpholino)-6,7-dihydro-5H-pyrrolo[3,4-d]pyrimidin-4-yl)phenyl)urea 2,2,2-trifluoroacetate] | 1 to 10 | > 100 | > 100 | > 100 | > 100 | > 100 |
| C[C@H]1COCCN1c1nc2c(c(-c3ccc(NC(=O)NC4CC4)cc3)n1)CN(C(=O)CN1CCOCC1)C2 [Example 47, (S)-1-cyclopropyl-3-(4-(2-(3-methylmorpholino)-6-(2-morpholinoacetyl)-6,7-dihydro-5H-pyrrolo[3,4-d]pyrimidin-4-yl)phenyl)urea 2,2,2-trifluoroacetate] | 1 to 10 | > 100 | 10 to 100 | > 100 | > 100 | > 100 |
| CC(C)CN1Cc2nc(N3CC4CCC(C3)O4)nc(-c3ccc(NC(=O)NCCO)cc3)c2C1 [Example 48, 1-(4-(2-(8-oxa-3-azabicyclo[3.2.1]octan-3-yl)-6-isobutyl-6,7-dihydro-5H-pyrrolo[3,4-d]pyrimidin-4-yl)phenyl)-3-(2-hydroxyethyl)urea 2,2,2-trifluoroacetate] | 1 to 10 | > 100 | > 100 | > 100 | > 100 | > 100 |
| CCNC(=O)Nc1ccc(-c2nc(N3CC4CCC(C3)O4)nc3c2CN(C(C)C)C3)cc1 [Example 49, 1-(4-(2-(8-oxa-3-azabicyclo[3.2.1]octan-3-yl)-6-isopropyl-6,7-dihydro-5H-pyrrolo[3,4-d]pyrimidin-4-yl)phenyl)-3-ethylurea 2,2,2-trifluoroacetate] | 1 to 10 | > 100 | > 100 | > 100 | > 100 | > 100 |
| CS(=O)(=O)N1Cc2nc(N3CC4CCC(C3)O4)nc(-c3ccc(NC(=O)NC4CC4)cc3)c2C1 [Example 50, 1-(4-(2-(8-oxa-3-azabicyclo[3.2.1]octan-3-yl)-6-(methylsulfonyl)-6,7-dihydro-5H-pyrrolo[3,4-d]pyrimidin-4-yl)phenyl)-3-cyclopropylurea] | 1 to 10 | > 100 | > 100 | > 100 | > 100 | > 100 |
| CC(CO)NC(=O)Nc1ccc(-c2nc(N3CCOC[C@@H]3C)nc3c2CN(C(C)C)C3)cc1 (stereo partly drawn) [Example 51, 1-(1-hydroxypropan-2-yl)-3-(4-(6-isopropyl-2-((S)-3-methylmorpholino)-6,7-dihydro-5H-pyrrolo[3,4-d]pyrimidin-4-yl)phenyl)urea 2,2,2-trifluoroacetate] | 1 to 10 | > 100 | > 100 | > 100 | > 100 | > 100 |
| CC(C)N1Cc2nc(N3CCOC[C@@H]3C)nc(-c3ccc(NC(=O)NCCC#N)cc3)c2C1 [Example 52, (S)-1-(2-cyanoethyl)-3-(4-(6-isopropyl-2-(3-methylmorpholino)-6,7-dihydro-5H-pyrrolo[3,4-d]pyrimidin-4-yl)phenyl)urea 2,2,2-trifluoroacetate] | 1 to 10 | > 100 | > 100 | > 100 | > 100 | > 100 |

Further lines, results first:

| IC50 (mTOR) [µM] | IC50 (PI3Kα) [µM] | IC50 (PI3Kβ) [µM] | IC50 (PI3Kδ) [µM] | IC50 (PI3Kγ) [µM] | IC50 [1] [µM] | SMILES |
| --- | --- | --- | --- | --- | --- | --- |
| 0.1 to 1 | 10 to 100 | 10 to 100 | 10 to 100 | 1 to 10 | > 100 | C[C@H]1COCCN1c1nc2c(c(-c3ccc(NC(=O)NCCO)cc3)n1)CN(S(C)(=O)=O)C2 [Example 36, (S)-1-(2-hydroxyethyl)-3-(4-(2-(3-methylmorpholino)-6-(methylsulfonyl)-6,7-dihydro-5H-pyrrolo[3,4-d]pyrimidin-4-yl)phenyl)urea] |
| 0.1 to 1 | 1 to 10 | 10 to 100 | 10 to 100 | 10 to 100 | 10 to 100 | CCNC(=O)N1Cc2nc(N3CCOC[C@@H]3C)nc(-c3ccc(NC(=O)NCCO)cc3)c2C1 [Example 37, (S)—N-ethyl-4-(4-(3-(2-hydroxyethyl)ureido)phenyl)-2-(3-methylmorpholino)-5H-pyrrolo[3,4-d]pyrimidine-6(7H)-carboxamide] |
| 1 to 10 | > 100 | > 100 | > 100 | > 100 | > 100 | C[C@H]1COCCN1c1nc2c(c(-c3ccc(NC(=O)NCCO)cc3)n1)CN(C1CCCCC1)C2 [Example 38, (S)-1-(4-(6-cyclohexyl-2-(3-methylmorpholino)-6,7-dihydro-5H-pyrrolo[3,4-d]pyrimidin-4-yl)phenyl)-3-(2-hydroxyethyl)urea] |
| 0.1 to 1 | 10 to 100 | 10 to 100 | 1 to 10 | 10 to 100 | 10 to 100 | CC(=O)N1Cc2nc(N3CCOC[C@@H]3C)nc(-c3ccc(NC(=O)NCCO)cc3)c2C1 [Example 39, (S)-1-(4-(6-acetyl-2-(3-methylmorpholino)-6,7-dihydro-5H-pyrrolo[3,4-d]pyrimidin-4-yl)phenyl)-3-(2-hydroxyethyl)urea] |
| 1 to 10 | 10 to 100 | 10 to 100 | 10 to 100 | > 100 | > 100 | C[C@H]1COCCN1c1nc2c(c(-c3ccc(NC(=O)NC4CC4)cc3)n1)CN(C(=O)C1CCOC1)C2 (stereo partly drawn) [Example 40, 1-cyclopropyl-3-(4-(2-((S)-3-methylmorpholino)-6-(tetrahydrofuran-3-carbonyl)-6,7-dihydro-5H-pyrrolo[3,4-d]pyrimidin-4-yl)phenyl)urea 2,2,2-trifluoroacetate] |
| 0.1 to 1 | 10 to 100 | 10 to 100 | 10 to 100 | > 100 | > 100 | C[C@H]1COCCN1c1nc2c(c(-c3ccc(NC(=O)NC4CC4)cc3)n1)CN(C(N)=O)C2 [Example 42, (S)-4-(4-(3-cyclopropylureido)phenyl)-2-(3-methylmorpholino)-5H-pyrrolo[3,4-d]pyrimidine-6(7H)-carboxamide 2,2,2-trifluoroacetate] |
| ≤ 0.1 | > 100 | > 100 | > 100 | > 100 | 1 to 10 | O=C(NCCO)Nc1ccc(-c2nc(N3CC4CCC(C3)O4)nc3c2CNC3)cc1 [Example 43, 1-(4-(2-(8-oxa-3-azabicyclo[3.2.1]octan-3-yl)-6,7-dihydro-5H-pyrrolo[3,4-d]pyrimidin-4-yl)phenyl)-3-(2-hydroxyethyl)urea hydrochloride] |
| 0.1 to 1 | > 100 | 10 to 100 | 10 to 100 | > 100 | 10 to 100 | CCNC(=O)Nc1ccc(-c2nc(N3CC4CCC(C3)O4)nc3c2CNC3)cc1 [Example 44, 1-(4-(2-(8-oxa-3-azabicyclo[3.2.1]octan-3-yl)-6,7-dihydro-5H-pyrrolo[3,4-d]pyrimidin-4-yl)phenyl)-3-ethylurea hydrochloride] |
